In article PMC8776995 (Frontiers in Chemistry, 2022):
Values joined by “and” are separate entries in the source; they are usually repeats but may differ in a detail not shown here. Equal values may be shown once.

Columns and labels:
PC-9 cells [1] = experiment: CCK-8 antiproliferation assay, PC-9; conditions: for Inhibitory efficacy: single repeats (Repeat 1-3), given as fraction
Description: The compounds were dissolved in DMSO to make a 20 μM stock solution and diluted to the concentration of working solutions with complete growth medium before administration.
Cells were seeded in 96-well plates: 3,000–5,000 cells/well in 100 ul. One day after seeding, the test compounds at concentration between 1.0 and 16.0 μ M or 0.1% DMSO (as control) were added to cells in triplicate. 48 h later, CCK-8 was added and incubated the plate for 1–4 h in the incubator. The absorbance at 450 nm were measured using a microplate reader (Bio-Tek).

PC-9 cells [2] = experiment: Annexin V/PI flow cytometry for cell apoptosis, PC-9; format: cell-based, human; set-up: key to Apoptosis (sum of Q2 and Q3) / Apoptosis, Average: % apoptotic cells (Annexin V/PI flow cytometry); conditions: for Apoptosis, Average / Apoptosis (sum of Q2 and Q3) / Lymphocytes/Q2: FITC-A+ , PI-A+ Freq. of Parent / Lymphocytes/Q3: FITC-A+ , PI-A- Freq. of Parent: PC-9, 48h; for Apoptosis, Average: average of three repeats; for Apoptosis (sum of Q2 and Q3): single repeats (Repeat 1-3); for Lymphocytes/Q2: FITC-A+ , PI-A+ Freq. of Parent / Lymphocytes/Q3: FITC-A+ , PI-A- Freq. of Parent: single runs
Description: To establish whether the antiproliferative efficacy is associated with apoptosis, PC-9 and H460 cells were treated with compound e4 or e12 of various concentrations (4, 8 and 12 μM) for 48 h, and then assessed with flow cytometry.
Cell-apoptosis analysis was carried out by flow cytometry using the Annexin V/PI apoptosis kit according to the manufacturer’s manual. Briefly, PC-9 or H460 (3 × 10^4–5 × 10^4/well) cells were seeded in 12-well plates for 24 h, and then treated with 0.1% DMSO (as control) or various concentrations of compound e4 or e12 for 48 h, respectively. Cells were harvested, washed with PBS, and then incubated with 100ul of 1X Annexin V binding buffer containing 1 μl PI and 1 μl FITC Annexin V for 15 min at RT in the dark. 200 µl of 1X binding buffer were added to each tube for flow cytometry analysis (BD LSRFortessa™ Flow Cytometer). The percentages of apoptotic cells were analyzed using FlowJo soft.

[3] = system: CCND1, CCNA2, CCNB1, CDK2, CDK6 RNA in PC-9 cells; experiment: qPCR assay for cell cycle-related gene analysis; format: cell-based, human; conditions: for CCNB relative mRNA expression (2^-ddCt vs NC, normalised to beta-Actin) / CCND1 relative mRNA expression (2^-ddCt vs NC, normalised to beta-Actin) / CDK6 relative mRNA expression (2^-ddCt vs NC, normalised to beta-Actin): qPCR SYBR_GREEN, NC = 1; for RQ: endogenous control b-Actin, reference sample NC; for 2^ΔΔCт CCNA / 2^ΔΔCт CCNB / 2^ΔΔCт CCND1 / 2^ΔΔCт CDK2: Repeat 1-3, relative to NC = 1
Description: To better understand the mechanisms underlying cell cycle arrest induced by e4 and e12 in NSCLC cells, we assessed the expression levels of a few genes involved in cell cycle regulation, including cyclin D1 (CCND1), cyclin A2 (CCNA2), cyclin B1 (CCNB1), cyclin-dependent kinase 2 (CDK2), and cyclin-dependent kinase 6 (CDK6) in PC-9 by qPCR. […] CCNA2 is known to bind and activate CDK2 and thus promotes the transition through G1/S and G2/M. CCNB1 and CCND1 are essential to mitosis and G1/S transition respectively. While G2/M arrest weas not detected, the changes in these gene expression profiles interpret the G1/S arrests in PC-9 cells treated with e4 and e12. PC-9 cells exposed to the compounds for various periods should be examined further.
Total RNA of cells was extracted and cDNA was synthesized. The primers for the target products were designed as in Table 3.

COCCOc1cc2ncnc(Nc3cccc(-c4cn(-c5ccc(C)cc5)nn4)c3)c2cc1OCCOC [e12, [6,7-Bis-(2-methoxy-ethoxy)-quinazolin-4-yl]-[3-(1-p-tolyl-1H-[1,2,3]triazol-4-yl)-phenyl]-amine]
IC50 (PC-9 cells [1]; Homo sapiens, PC-9, 48 h, read-out: IC50 (μM) PC-9): 6.36 ± 0.11 µM | inhibition at 4 µM (PC-9 cells [1]; Homo sapiens, PC-9, read-out: Inhibitory efficacy, PC-9, 4uM, single repeats (Repeat 1-3), given as fraction): 21.3% | inhibition at 8 µM (PC-9 cells [1]; Homo sapiens, PC-9, read-out: Inhibitory efficacy, PC-9, 8uM, single repeats (Repeat 1-3), given as fraction): 70.1% | inhibition at 16 µM (PC-9 cells [1]; Homo sapiens, PC-9, read-out: Inhibitory efficacy, PC-9, 16uM, single repeats (Repeat 1-3), given as fraction): 88.6% | Inhibitory efficacy (PC-9 cells [1]; PC-9, 4uM, 4 µM): 0.1587 and 0.2347 | Inhibitory efficacy (PC-9 cells [1]; PC-9, 8uM, 8 µM): 0.6968 and 0.6771 | Inhibitory efficacy (PC-9 cells [1]; PC-9, 16uM, 16 µM): 0.8795 and 0.8884 | cell apoptosis (flow cytometry) (PC-9 cells [2]; PC-9, 4, 8 and 12 μM, 48 h): significant cell apoptosis | Apoptosis, Average (PC-9 cells [2]; 4uM): 13.94 | Apoptosis (sum of Q2 and Q3) (PC-9 cells [2]; 4uM): 15.01 and 16.36 and 10.45 | Lymphocytes/Q2: FITC-A+ , PI-A+ Freq. of Parent (PC-9 cells [2]; 4uM): 14.50% and 15.4% and 9.81% | Lymphocytes/Q3: FITC-A+ , PI-A- Freq. of Parent (PC-9 cells [2]; 4uM): 0.51% and 0.96% and 0.64% | Apoptosis, Average (PC-9 cells [2]; 8uM): 12.92 | Apoptosis (sum of Q2 and Q3) (PC-9 cells [2]; 8uM): 13.98 and 12.64 and 12.13 | Lymphocytes/Q2: FITC-A+ , PI-A+ Freq. of Parent (PC-9 cells [2]; 8uM): 12.60% and 10.6% and 10.7% | Lymphocytes/Q3: FITC-A+ , PI-A- Freq. of Parent (PC-9 cells [2]; 8uM): 1.38% and 2.04% and 1.43% | Apoptosis, Average (PC-9 cells [2]; 12uM): 29.21 | Apoptosis (sum of Q2 and Q3) (PC-9 cells [2]; 12uM): 24.77 and 29.39 and 33.48 | Lymphocytes/Q2: FITC-A+ , PI-A+ Freq. of Parent (PC-9 cells [2]; 12uM): 20.50% and 25.9% and 29.5% | Lymphocytes/Q3: FITC-A+ , PI-A- Freq. of Parent (PC-9 cells [2]; 12uM): 4.27% and 3.49% and 3.98% | CCNB relative mRNA expression (2^-ddCt vs NC, normalised to beta-Actin) ([3]; 4uM): 0.9828 | CCND1 relative mRNA expression (2^-ddCt vs NC, normalised to beta-Actin) ([3]; 4uM): 0.7886 | CDK6 relative mRNA expression (2^-ddCt vs NC, normalised to beta-Actin) ([3]; 4uM): 0.5928 | CCNB relative mRNA expression (2^-ddCt vs NC, normalised to beta-Actin) ([3]; 8uM): 0.8452 | CCND1 relative mRNA expression (2^-ddCt vs NC, normalised to beta-Actin) ([3]; 8uM): 0.7649 | CDK6 relative mRNA expression (2^-ddCt vs NC, normalised to beta-Actin) ([3]; 8uM): 0.8101 | CCNB relative mRNA expression (2^-ddCt vs NC, normalised to beta-Actin) ([3]; 12uM): 0.7825 | CCND1 relative mRNA expression (2^-ddCt vs NC, normalised to beta-Actin) ([3]; 12uM): 0.6173 | CDK6 relative mRNA expression (2^-ddCt vs NC, normalised to beta-Actin) ([3]; 12uM): 0.676 | RQ ([3]; CCNA mRNA, 4uM): 0.8394 | RQ ([3]; CCNA mRNA, 8uM): 0.6204 | RQ ([3]; CCNA mRNA, 12uM): 0.7362 | 2^ΔΔCт CCNA ([3]; 4uM): 0.5435 and 0.6447 and 0.8394 | 2^ΔΔCт CCNA ([3]; 8uM): 0.582 and 0.5272 and 0.6204 | 2^ΔΔCт CCNA ([3]; 12uM): 0.5914 and 0.5472 and 0.7362 | RQ ([3]; CCNB mRNA, 4uM): 1.03 | RQ ([3]; CCNB mRNA, 8uM): 0.8431 | RQ ([3]; CCNB mRNA, 12uM): 1.0421 | 2^ΔΔCт CCNB ([3]; 4uM): 0.9828 and 0.8732 and 1.03 | 2^ΔΔCт CCNB ([3]; 8uM): 0.8452 and 0.8244 and 0.8431 | 2^ΔΔCт CCNB ([3]; 12uM): 0.7825 and 0.7721 and 1.0421 | 2^ΔΔCт CCND1 ([3]; CCND1, 4uM): 0.7886 and 0.963 and 1.159 | 2^ΔΔCт CCND1 ([3]; CCND1, 8uM): 0.7649 and 0.9528 and 0.8372 | 2^ΔΔCт CCND1 ([3]; CCND1, 12uM): 0.6173 and 0.9545 and 0.694 | RQ ([3]; CCND1 mRNA, 4uM): 1.159 | RQ ([3]; CCND1 mRNA, 8uM): 0.8372 | RQ ([3]; CCND1 mRNA, 12uM): 0.694 | 2^ΔΔCт CDK2 ([3]; CDK2, 4uM): 0.9262 and 1.002 and 1.127 | 2^ΔΔCт CDK2 ([3]; CDK2, 8uM): 0.848 and 1.034 and 0.9665 | 2^ΔΔCт CDK2 ([3]; CDK2, 12uM): 0.7751 and 1.0315 and 0.9502 | RQ ([3]; CDK2 mRNA, 4uM): 1.127 | RQ ([3]; CDK2 mRNA, 8uM): 0.9665 | RQ ([3]; CDK2 mRNA, 12uM): 0.9502
